Measured values from ChEMBL document CHEMBL1201862, “PubChem BioAssay data set” (2004).
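All cell lines were grown in 96-well plates and treated with compound for 48 hours. The concentration for 50% growth inhibition is given as GI50.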 Activity calls are given as the source filed them. Rule as the data show it: active = GI50 up to about 1.1 µM and inactive = higher.

How the values were obtained:
Test in all cases: inhibition of tumour cell growth, NCI panel, 48 h
RPMI-8226 = tested on: RPMI-8226
SNB-19 = tested on: SNB-19
A549 = tested on: A549
SNB-78 = tested on: SNB-78
HCT-15 = tested on: HCT-15
NCI-H226 = tested on: NCI-H226
RXF 393 = tested on: RXF 393
UO-31 = tested on: UO-31
SK-MEL-5 = tested on: SK-MEL-5
IGROV-1 = tested on: IGROV-1
DMS-273 = tested on: DMS-273
EKVX = tested on: EKVX
OVCAR-5 = tested on: OVCAR-5
KM-20L2 = tested on: KM-20L2
NCI-H460 = tested on: NCI-H460
HOP-62 = tested on: HOP-62
HL-60 = tested on: HL-60
OVCAR-4 = tested on: OVCAR-4
SF-539 = tested on: SF-539
OVCAR-3 = tested on: OVCAR-3
DLD-1 = tested on: DLD-1
MCF7 = tested on: MCF7
CCRF-CEM = tested on: CCRF-CEM
SNB-75 = tested on: SNB-75
DMS-114 = tested on: DMS-114
NCI/ADR-RES = tested on: NCI/ADR-RES
KM12 = tested on: KM12
SN12C = tested on: SN12C
HT-29 = tested on: HT-29
MOLT-4 = tested on: MOLT-4
SK-OV-3 = tested on: SK-OV-3
SK-MEL-2 = tested on: SK-MEL-2
M19-MEL = tested on: M19-MEL
U-251 = tested on: U-251
SW-620 = tested on: SW-620
A498 = tested on: A498
SK-MEL-28 = tested on: SK-MEL-28
COLO 205 = tested on: COLO 205
HCT-116 = tested on: HCT-116
HOP-18 = tested on: HOP-18
UACC-257 = tested on: UACC-257
CAKI-1 = tested on: CAKI-1
SF-295 = tested on: SF-295
SF-268 = tested on: SF-268
OVCAR-8 = tested on: OVCAR-8
UACC-62 = tested on: UACC-62
NCI-H23 = tested on: NCI-H23
K562 = tested on: K562
HCC 2998 = tested on: HCC 2998
LOX IMVI = tested on: LOX IMVI
HOP-92 = tested on: HOP-92
XF498 = tested on: XF498
LXFL 529 = tested on: LXFL 529
786-0 = tested on: 786-0
NCI-H522 = tested on: NCI-H522
Malme-3M = tested on: Malme-3M
TK-10 = tested on: TK-10
M14 = tested on: M14
ACHN = tested on: ACHN
SR = tested on: SR

## O=C(OC(=O)n1ccc2ccccc21)n1ccc2ccccc21
RPMI-8226
  GI50: > 100 µM (inactive)
SNB-19
  GI50: > 100 µM (inactive)
A549
  GI50: > 100 µM (inactive)
SNB-78
  GI50: > 100 µM (inactive)
HCT-15
  GI50: > 100 µM
NCI-H226
  GI50: > 100 µM (inactive)
RXF 393
  GI50: > 100 µM (inactive)
UO-31
  GI50: 75.7 µM (inactive)
SK-MEL-5
  GI50: > 100 µM (inactive)
IGROV-1
  GI50: > 100 µM (inactive)
DMS-273
  GI50: > 100 µM (inactive)
EKVX
  GI50: > 100 µM (inactive)
OVCAR-5
  GI50: > 100 µM (inactive)
KM-20L2
  GI50: > 100 µM (inactive)
NCI-H460
  GI50: > 100 µM (inactive)
HOP-62
  GI50: > 100 µM (inactive)
HL-60
  GI50: > 100 µM (inactive)
OVCAR-4
  GI50: > 100 µM (inactive)
SF-539
  GI50: > 100 µM (inactive)
OVCAR-3
  GI50: > 100 µM (inactive)
DLD-1
  GI50: > 100 µM (inactive)
MCF7
  GI50: > 100 µM (inactive)
CCRF-CEM
  GI50: > 100 µM (inactive)
SNB-75
  GI50: 84.1 µM (inactive)
DMS-114
  GI50: > 100 µM (inactive)
NCI/ADR-RES
  GI50: > 100 µM (inactive)
KM12
  GI50: > 100 µM (inactive)
SN12C
  GI50: > 100 µM (inactive)
HT-29
  GI50: > 100 µM (inactive)
MOLT-4
  GI50: > 100 µM (inactive)
SK-OV-3
  GI50: > 100 µM (inactive)
SK-MEL-2
  GI50: > 100 µM (inactive)
M19-MEL
  GI50: > 100 µM (inactive)
U-251
  GI50: > 100 µM (inactive)
SW-620
  GI50: > 100 µM (inactive)
A498
  GI50: > 100 µM (inactive)
SK-MEL-28
  GI50: > 100 µM (inactive)
COLO 205
  GI50: > 100 µM (inactive)
HCT-116
  GI50: > 100 µM (inactive)
HOP-18
  GI50: > 100 µM (inactive)
UACC-257
  GI50: > 100 µM (inactive)
CAKI-1
  GI50: > 96.4 µM (inactive)
SF-295
  GI50: > 92.3 µM (inactive)
SF-268
  GI50: > 100 µM (inactive)
OVCAR-8
  GI50: > 100 µM (inactive)
UACC-62
  GI50: > 100 µM (inactive)
NCI-H23
  GI50: > 100 µM (inactive)
K562
  GI50: > 100 µM (inactive)
HCC 2998
  GI50: > 100 µM (inactive)
LOX IMVI
  GI50: > 100 µM (inactive)
HOP-92
  GI50: > 100 µM (inactive)
XF498
  GI50: > 100 µM (inactive)

## Cc1cc(C)nc(NS(=O)(=O)c2ccc(Nc3c4ccccc4nc4c(C(=O)Nc5ccc(S(=O)(=O)N=C(N)N)cc5)ccc(Cl)c34)cc2)n1
LXFL 529
  GI50: 25.8 µM (inactive)
RPMI-8226
  GI50: 28.2 µM (inactive)
SNB-19
  GI50: 20.4 µM (inactive)
A549
  GI50: > 100 µM (inactive)
SNB-78
  GI50: 33.7 µM (inactive)
NCI-H226
  GI50: 21.9 µM (inactive)
RXF 393
  GI50: 18.2 µM (inactive)
UO-31
  GI50: 25.4 µM (inactive)
SK-MEL-5
  GI50: 98.6 µM (inactive)
DMS-273
  GI50: 32.1 µM (inactive)
EKVX
  GI50: 56.4 µM (inactive)
786-0
  GI50: 38.9 µM (inactive)
OVCAR-5
  GI50: 41.2 µM (inactive)
KM-20L2
  GI50: 35.6 µM (inactive)
NCI-H460
  GI50: 53.1 µM (inactive)
HOP-62
  GI50: 23.2 µM (inactive)
HL-60
  GI50: 24.1 µM (inactive)
OVCAR-4
  GI50: 23.9 µM (inactive)
NCI-H522
  GI50: 15.8 µM (inactive)
SF-539
  GI50: 19.3 µM (inactive)
Malme-3M
  GI50: 33.6 µM (inactive)
OVCAR-3
  GI50: 17.5 µM (inactive)
DLD-1
  GI50: 33.1 µM (inactive)
SNB-75
  GI50: 35.7 µM (inactive)
DMS-114
  GI50: 21.7 µM (inactive)
KM12
  GI50: 42.7 µM (inactive)
SN12C
  GI50: 29.8 µM (inactive)
HT-29
  GI50: 36.3 µM (inactive)
MOLT-4
  GI50: 23.5 µM (inactive)
SK-OV-3
  GI50: 22.9 µM (inactive)
M19-MEL
  GI50: 26 µM (inactive)
U-251
  GI50: 18.2 µM (inactive)
A498
  GI50: 34.6 µM (inactive)
SK-MEL-28
  GI50: > 10 µM (inactive)
COLO 205
  GI50: 55 µM (inactive)
HCT-116
  GI50: 21.9 µM (inactive)
HOP-18
  GI50: 18.7 µM (inactive)
UACC-257
  GI50: 64.3 µM (inactive)
TK-10
  GI50: 34.6 µM (inactive)
CAKI-1
  GI50: 36.1 µM (inactive)
SF-295
  GI50: 47.2 µM (inactive)
M14
  GI50: 88.5 µM (inactive)
SF-268
  GI50: 27.9 µM (inactive)
OVCAR-8
  GI50: 17.5 µM (inactive)
UACC-62
  GI50: 19.3 µM (inactive)
NCI-H23
  GI50: 19.7 µM (inactive)
ACHN
  GI50: 43.5 µM (inactive)
K562
  GI50: 24.2 µM (inactive)
HCC 2998
  GI50: 20 µM (inactive)
LOX IMVI
  GI50: 19.4 µM (inactive)
XF498
  GI50: 24 µM (inactive)
SR
  GI50: 25.3 µM (inactive)
